Earlier results on 1 compound are cited in patent publication US9289495B2, “Systems and methods for treatment of allergies and other indications” (Strategic Science & Technologies, LLC, priority 2011, dated 2016).

Turning to `CN(C)CCOC(C)(c1ccccc1)c1ccccn1` (stereo not shown) [doxylamine], the pKa is listed as 8.7-9.2.
